As usually defined, the IC50 is the point on the concentration scale where inhibition reaches its midpoint.

The target in data set [1] is Recombinant Human Ketohexokinase (KHK) (Homo sapiens (Human), UniProt P50053). Nature of the data set: Ketohexokinase assay (KHK assay), ADP-Glo. In kind it is biochemical. The procedure: • 1. EnVision multilabel reader, Perkin Elmer; • 2. OptiPlate 384-well microplate, Perkin Elmer, Cat. No. 6007290; • 3. Recombinant Human Ketohexokinase (KHK), R&D Cat. No.: 8177-HK-020, Lot No.: DDFK0117092; • 4. Fructose (D(−)-Fructose), SCR Cat. No.: 36003034; and • 5. ADP-Glo kinase assay kit, Promega_Cat. No.: V9101.
1. preparation of Dilution Buffer containing 50 mM hydroxyethylpiperazine […] (Hepes), 140 mM KCl, 3.5 mM MgCl2, and 0.01% bovine serum albumin (BSA), pH 7.4.
2. A working solution of ketohexokinase at 2.5 times concentration was prepared with Dilution Buffer, with 50 nM ketohexokinase and 12.5 mM fructose.
3. A working solution of adenosine triphosphate (ATP) at 2.5 times concentration was prepared with Dilution Buffer, with a concentration of 250 μM.
4. Each compound was diluted starting at a concentration of 500 μM, 3-fold diluted for 9 concentration points. The final concentration of the compound in the reaction system started from 10 μM and the final concentration of dimethyl sulfoxide (DMSO) was 2%.
5. A 96-well plate was prepared as a reaction plate, and was incubated at room temperature for 5 min after adding 6 μL ketohexokinase working solution at 2.5 times concentration to each well and further adding 3 μL compound working solution to each well.
6. The first well of each row was a positive control for a compound, i.e. the same volume of the buffer was added to replace the compound and ketohexokinase. The last well was a negative control for the compound, i.e. the same volume of Dilution Buffer was added instead of the compound.
7. 6 μL ATP working solution was added to each well in a 96-well reaction plate to initiate the kinase reaction. The kinase reaction was incubated in a constant temperature heater at 28° C. for 1 h.
1. A384 plate was prepared as a detection plate, and firstly 5 μL ADP-Glo reagent was added.
2. 5 μL kinase reaction mixture from the reaction plate was added to each well and incubated in a constant temperature heater at 28° C. for 30 min.
3. 10 μL kinase detection reagent was added to each well and incubated in a constant temperature heater at 28° C. for 30 min.
4. The detection plate was placed in an EnVision multilabel reader to read the chemiluminescent signal.
A general note: ADP-Glo first removes unused ATP, then detects ADP through luciferase.

Another data set has as its target CYP1A2 (Homo sapiens (Human), UniProt P05177). It is filed as in vitro ADME. As to conditions: human, microsomes, 10 min. How it is done:
(§1) The inhibitory effect of test compounds on the activity of human hepatic microsomal cytochrome P450 isozymes (CYP1A2, CYP2C9, CYP2C19, CYP2D6 and CYP3A4) was determined.
(§2) First, the test compound (10 mM) was diluted in gradient to prepare working solutions (100×final concentration) with working solution concentrations: 5, 1.5, 0.5, 0.15, 0.05, 0.015, 0.005 mM, respectively, and at the same time, working solutions of each positive inhibitor of P450 isozymes (CYP1A2, CYP2C9, CYP2C19, CYP2D6 and CYP3A4) and its specific substrate mixture were prepared. Human liver microsomes frozen in a −80° C. refrigerator were thawed on ice, and diluted with PB (phosphate buffer) after all the human liver microsomes were dissolved, to prepare a working solution at a certain concentration (0.253 mg/mL). 20 μl substrate mixture was added to the reaction plate (20 μL PB was added to the Blank wells) while 158 μL human liver microsome working solution was added to the reaction plate which was placed on ice for later use. At this time, 2 μL of each concentration of the test compound (N=1) and the specific inhibitor (N=2) were added to the corresponding wells, and the corresponding organic solvents were added to the groups without inhibitors (the test compound or the positive inhibitor) as control samples (1:1 DMSO:MeOH for the test compound control sample, and 1:9 DMSO:MeOH for the positive control sample). After pre-incubation in 37° C. water bath for 10 min, 20 μL coenzyme factor (NADPH) solution was added to the reaction plate, and incubated in 37° C. water bath for 10 min. 400 μL cold acetonitrile solution (200 ng/mL Tolbutamide and Labetalol as the internal standard) was added to stop the reaction. The reaction plate was placed on a shaker and shaken for 10 min. The mixture was centrifuged at 4,000 rpm for 20 min, and 200 μl the supernatant was added to 100 μL water for sample dilution. Finally, the plate was sealed, shaken, mixed well and detected by LC/MS/MS.

In the next data set the target is CYP2C19 (Homo sapiens (Human), UniProt P33261). Nature of the data set: Inhibitory activity on human liver microsomal cytochrome P450 isozymes. In kind it is in vitro ADME. Conditions: human liver microsomes. How it is done:
as §1, §2

The target of another data set is CYP2C9 (Homo sapiens (Human), UniProt P11712). The data set is described as above. As to conditions: human liver microsomes. It is filed as in vitro ADME. How it is done:
as §1, §2
For orientation: Liver microsomes are a subcellular fraction often used to study metabolism.

Another data set has as its target CYP3A4 (Homo sapiens (Human), UniProt P08684). Described as above. In kind it is in vitro ADME. As to conditions: human liver microsomes. The procedure:
as §1, §2

The target of a further data set is CYP2D6 (Homo sapiens (Human), UniProt P10635). The data set is described as above. It is filed as in vitro ADME. Conditions: human liver microsomes. How it is done:
as §1, §2

A short description of data set [2]: Liver-blood ratio, tissue distribution in rats. In kind it is in vivo, SD rats. Conditions: SD, rat, 1 mg/kg, PO 1 mpk.
[3] abbreviates: brain, read-out: Brain tissue concentration.
The mark [4] stands for this setting: brain/plasma, read-out: Brain-blood ratio.
The mark [5] stands for this setting: liver, read-out: Liver tissue concentration.
Setting [6] is: liver/plasma, read-out: Liver-blood ratio.
The mark [7] stands for this setting: plasma, read-out: Plasma concentration.

Read-outs that look alike come from different tables or passages of the source. Some results are limits rather than exact numbers.

Chain of Recombinant Human Ketohexokinase (KHK) (P50053 whole entry): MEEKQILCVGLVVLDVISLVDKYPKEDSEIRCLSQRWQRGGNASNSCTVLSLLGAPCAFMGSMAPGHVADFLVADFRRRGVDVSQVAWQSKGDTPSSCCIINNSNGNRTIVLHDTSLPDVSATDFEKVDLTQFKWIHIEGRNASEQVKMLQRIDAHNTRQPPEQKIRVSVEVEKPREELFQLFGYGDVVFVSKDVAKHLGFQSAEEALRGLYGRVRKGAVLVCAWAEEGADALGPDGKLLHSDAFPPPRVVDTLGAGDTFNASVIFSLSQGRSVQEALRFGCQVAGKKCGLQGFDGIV
Chain of CYP3A4 (P08684 whole entry): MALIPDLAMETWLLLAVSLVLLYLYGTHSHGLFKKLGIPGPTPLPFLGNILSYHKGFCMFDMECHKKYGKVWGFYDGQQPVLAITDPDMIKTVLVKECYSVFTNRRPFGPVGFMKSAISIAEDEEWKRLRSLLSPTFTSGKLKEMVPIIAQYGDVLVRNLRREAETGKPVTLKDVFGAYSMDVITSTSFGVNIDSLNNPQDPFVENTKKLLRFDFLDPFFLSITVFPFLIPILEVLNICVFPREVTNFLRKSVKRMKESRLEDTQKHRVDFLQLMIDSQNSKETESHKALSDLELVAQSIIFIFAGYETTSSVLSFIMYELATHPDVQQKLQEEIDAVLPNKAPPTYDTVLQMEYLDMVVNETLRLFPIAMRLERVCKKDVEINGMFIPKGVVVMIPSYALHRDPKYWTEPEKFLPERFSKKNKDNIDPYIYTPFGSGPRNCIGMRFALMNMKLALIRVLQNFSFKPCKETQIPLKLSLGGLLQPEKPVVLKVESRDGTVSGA
Chain of CYP2C19 (P33261 whole entry): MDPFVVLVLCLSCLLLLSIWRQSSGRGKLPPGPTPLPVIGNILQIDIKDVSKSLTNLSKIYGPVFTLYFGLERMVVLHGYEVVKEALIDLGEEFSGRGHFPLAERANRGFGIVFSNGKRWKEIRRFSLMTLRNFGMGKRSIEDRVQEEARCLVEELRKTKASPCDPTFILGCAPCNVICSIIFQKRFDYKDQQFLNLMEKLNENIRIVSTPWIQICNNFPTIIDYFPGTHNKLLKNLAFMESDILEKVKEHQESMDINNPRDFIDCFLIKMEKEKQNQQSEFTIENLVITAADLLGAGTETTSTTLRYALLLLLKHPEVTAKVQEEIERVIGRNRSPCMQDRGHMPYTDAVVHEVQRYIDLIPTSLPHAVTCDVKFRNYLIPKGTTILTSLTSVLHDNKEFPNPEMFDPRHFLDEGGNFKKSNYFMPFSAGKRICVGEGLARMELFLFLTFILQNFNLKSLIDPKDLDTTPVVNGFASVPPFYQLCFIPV
Chain of CYP2C9 (P11712 whole entry): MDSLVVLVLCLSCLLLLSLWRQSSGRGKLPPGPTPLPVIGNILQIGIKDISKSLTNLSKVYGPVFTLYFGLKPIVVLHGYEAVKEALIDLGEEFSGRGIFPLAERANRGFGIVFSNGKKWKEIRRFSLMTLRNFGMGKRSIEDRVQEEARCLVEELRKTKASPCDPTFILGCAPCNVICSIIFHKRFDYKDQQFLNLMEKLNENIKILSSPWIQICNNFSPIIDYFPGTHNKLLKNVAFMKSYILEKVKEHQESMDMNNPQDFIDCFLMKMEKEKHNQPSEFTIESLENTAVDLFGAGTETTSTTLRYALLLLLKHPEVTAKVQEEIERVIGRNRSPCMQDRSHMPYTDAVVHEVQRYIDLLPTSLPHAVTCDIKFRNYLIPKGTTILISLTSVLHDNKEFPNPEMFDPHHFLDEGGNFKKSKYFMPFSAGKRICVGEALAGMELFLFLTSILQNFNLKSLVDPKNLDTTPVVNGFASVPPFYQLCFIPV
Chain of CYP1A2 (P05177 whole entry): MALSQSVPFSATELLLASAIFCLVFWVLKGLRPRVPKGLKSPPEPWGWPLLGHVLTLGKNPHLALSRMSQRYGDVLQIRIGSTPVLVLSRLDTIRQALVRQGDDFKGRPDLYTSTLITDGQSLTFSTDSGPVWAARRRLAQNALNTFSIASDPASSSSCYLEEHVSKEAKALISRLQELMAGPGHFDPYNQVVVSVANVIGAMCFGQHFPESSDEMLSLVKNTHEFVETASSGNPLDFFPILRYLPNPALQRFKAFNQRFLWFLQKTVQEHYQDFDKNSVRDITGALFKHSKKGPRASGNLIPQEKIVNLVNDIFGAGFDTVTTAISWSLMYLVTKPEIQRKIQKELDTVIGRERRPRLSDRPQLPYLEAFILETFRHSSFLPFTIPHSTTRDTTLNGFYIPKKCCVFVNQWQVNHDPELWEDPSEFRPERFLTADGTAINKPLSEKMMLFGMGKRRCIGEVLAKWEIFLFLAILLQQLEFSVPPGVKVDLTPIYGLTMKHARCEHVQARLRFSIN
Chain of CYP2D6 (P10635 whole entry): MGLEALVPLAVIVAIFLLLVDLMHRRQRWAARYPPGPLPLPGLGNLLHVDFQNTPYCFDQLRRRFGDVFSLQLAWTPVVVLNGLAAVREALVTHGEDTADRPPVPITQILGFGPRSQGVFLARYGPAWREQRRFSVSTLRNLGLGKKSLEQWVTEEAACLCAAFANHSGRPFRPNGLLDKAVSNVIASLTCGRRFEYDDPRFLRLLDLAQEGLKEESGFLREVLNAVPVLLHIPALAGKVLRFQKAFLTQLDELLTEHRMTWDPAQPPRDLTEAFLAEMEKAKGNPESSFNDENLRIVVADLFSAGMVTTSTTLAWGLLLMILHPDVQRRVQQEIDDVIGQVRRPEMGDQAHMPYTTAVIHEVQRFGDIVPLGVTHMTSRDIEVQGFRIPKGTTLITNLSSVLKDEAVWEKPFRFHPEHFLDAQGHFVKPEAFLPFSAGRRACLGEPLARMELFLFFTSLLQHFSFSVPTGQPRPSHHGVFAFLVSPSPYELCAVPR

Take `C[C@H]1CCN1c1nc(N2C[C@@H]3[C@@H](CC(=O)O)[C@@H]3C2)c2ccsc2n1` [WX004]: the IC50 in data set [1] was 49 nM; against CYP1A2 it was over 50 µM; against CYP2C19, over 50 µM; against CYP2C9 it was over 50 µM; at CYP3A4, over 50 µM; at CYP2D6, over 50 µM. In addition, the results for the concentration at 1.5 h in data set [2] (setting [3]), in data set [2] (setting [5]) and in data set [2] (setting [7]) were 0.105 µM, 4.42 µM and 4.67 µM, respectively. Besides, the concentration at 2 h in data set [2] (setting [3]) turned out to be 0.148 µM; in data set [2] (setting [5]), 6.37 µM; in data set [2] (setting [7]) it was 7.75 µM. Also, the concentration at 6 h in data set [2] (setting [3]) stood at 0.071 µM; in data set [2] (setting [5]), 3.9 µM; in data set [2] (setting [7]) it was 3.67 µM. Moreover, the results for the Kp at 1.5 h in data set [2] (setting [4]) and in data set [2] (setting [6]) were 0.022 and 0.943, respectively. The results for the Kp at 2 h in data set [2] (setting [4]) and in data set [2] (setting [6]) were 0.019 and 0.821, respectively. The Kp at 6 h in data set [2] (setting [4]) amounted to 0.023; in data set [2] (setting [6]), 1.22.

For the origin of these results see US12534477B2, “Compound having KHK inhibitory effect” (HANGZHOU ZHONGMEIHUADONG PHARMACEUTICAL CO., LTD., priority 2019, dated 2026).
